Source: patent US20250152661A1, “NOVEL COMBINATION TREATMENT REGIMEN OF BACTERIAL INFECTIONS” (BONE SUPPORT AB, priority 2022, published 2025)
In brackets after ≈: the same amount, converted by molar mass. Where two headings read alike, the source gives them in different places.

Assays:
[1] = tested on: S. aureus ATCC 25923; test: MIC values predetermined using MALDI-TOF MS system (Vitek MS); type: cell-based, Staphylococcus aureus
[2] = tested on: S. aureus clinical strain P-3; test: as above; type: cell-based, Staphylococcus aureus

## gentamicin
[1]; S. aureus ATCC 25923
  MIC: 0.064 µg/mL
[2]; S. aureus clinical strain P-3
  MIC: 0.5 µg/mL

## CO[C@H]1/C=C/O[C@@]2(C)Oc3c(C)c(O)c4c(O)c(c(/C=N/N5CCN(C)CC5)c(O)c4c3C2=O)NC(=O)/C(C)=C\C=C\[C@H](C)[C@H](O)[C@@H](C)[C@@H](O)[C@@H](C)[C@H](OC(C)=O)[C@@H]1C [RIF, rifampicin]
[1]; Staphylococcus aureus, ATCC25923, S. aureus ATCC 25923, read-out: MIC
  MIC: 0.008 µg/mL (≈ 0.00972 µM)
[2]; Staphylococcus aureus, S. aureus clinical strain P-3, read-out: MIC
  MIC: 0.008 µg/mL (≈ 0.00972 µM)

## CN[C@H](CC(C)C)C(=O)N[C@H]1C(=O)N[C@@H](CC(N)=O)C(=O)N[C@H]2C(=O)N[C@H]3C(=O)N[C@H](C(=O)N[C@H](C(=O)O)c4cc(O)cc(O)c4-c4cc3ccc4O)[C@H](O)c3ccc(c(Cl)c3)Oc3cc2cc(c3O[C@@H]2O[C@H](CO)[C@@H](O)[C@H](O)[C@H]2O[C@H]2C[C@](C)(N)[C@H](O)[C@H](C)O2)Oc2ccc(cc2Cl)[C@H]1O [VAN, Vancomycin]
[1]; Staphylococcus aureus, ATCC25923
  MIC: 2 µg/mL (≈ 1.38 µM)
[2]; Staphylococcus aureus
  MIC: 1 µg/mL (≈ 0.69 µM)
